Measured values as given in patent publication US8362022B2, “Selective subtype alpha 2 adrenergic agents and methods for use thereof” (Allergan, Inc., priority 2008, dated 2013).
Read-outs that look alike come from different tables or passages of the source.

What was measured:
Type in all cases: cell-based
Alpha 1A = target: T1, Alpha 1A (Homo sapiens, UniProt P35348); assay: RSAT assay (Receptor Selection and Amplification Technology), Alpha 1A; conditions: value in parentheses, ratio of maximal effect of drug to maximal effect of standard full agonist
T1 sequence (P35348 1-466): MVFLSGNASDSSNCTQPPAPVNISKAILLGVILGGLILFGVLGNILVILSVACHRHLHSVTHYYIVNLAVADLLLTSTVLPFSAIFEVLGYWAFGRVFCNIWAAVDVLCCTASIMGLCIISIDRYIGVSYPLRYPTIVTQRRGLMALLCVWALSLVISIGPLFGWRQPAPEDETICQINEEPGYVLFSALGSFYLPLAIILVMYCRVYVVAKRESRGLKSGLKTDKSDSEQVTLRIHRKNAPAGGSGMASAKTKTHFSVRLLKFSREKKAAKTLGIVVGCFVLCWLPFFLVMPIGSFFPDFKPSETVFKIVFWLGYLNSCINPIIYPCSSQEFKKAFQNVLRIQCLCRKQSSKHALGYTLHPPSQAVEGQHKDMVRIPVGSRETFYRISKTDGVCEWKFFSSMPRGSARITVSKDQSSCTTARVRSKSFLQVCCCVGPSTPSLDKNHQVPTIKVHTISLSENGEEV
Description: (§1) The RSAT assay measures a receptor-mediated loss of contact inhibition that results in selective proliferation of receptor-containing cells in a mixed population of confluent cells. The increase in cell number is assessed with an appropriate transfected marker gene such as β-galactosidase, the activity of which can be easily measured in a 96-well format. Receptors that activate the G protein, Gq, elicit this response. Alpha 2 receptors, which normally couple to Gi, activate the RSAT response when coexpressed with a hybrid Gq protein that has a Gi receptor recognition domain, called Gq/i5.
(§2) NIH-3T3 cells are plated at a density of 2×10^6 cells in 15 cm dishes and maintained in Dulbecco's modified Eagle's medium supplemented with 10% calf serum. One day later, cells are cotransfected by calcium phosphate precipitation with mammalian expression plasmids encoding p-SV-β-galactosidase (5-10 μg), receptor (1-2 μg) and G protein (1-2 μg). 40 μg salmon sperm DNA may also be included in the transfection mixture. […] Cells are thawed and 100 μl added to 100 μL aliquots of various concentrations of drugs in triplicate in 96-well dishes. Incubations continue 72-96 hr at 37° C. After washing with phosphate-buffered saline, β-galactosidase enzyme activity is determined by adding 200 μL of the chromogenic substrate (consisting of 3.5 mM o-nitrophenyl-β-D-galactopyranoside and 0.5% nonidet P-40 in phosphate buffered saline), incubating overnight at 30° C. and measuring optical density at 420 nm. The absorbance is a measure of enzyme activity, which depends on cell number and reflects a receptor-mediated cell proliferation. The efficacy or intrinsic activity is calculated as a ratio of the maximal effect of the drug to the maximal effect of a standard full agonist for each receptor subtype. Brimonidine, the chemical structure of which is shown below, is used as the standard agonist for the alpha 2B and alpha 2C receptors. […] NA stands for “not active” at concentrations less than 3-10 micromolar.

alpha 2B receptor = target: T2, alpha 2B receptor (Homo sapiens, UniProt P18089); assay: RSAT assay (Receptor Selection and Amplification Technology), Alpha 2B; conditions: for Intrinsic Activity efficacy Alpha 2B: value in parentheses, ratio of maximal effect to that of brimonidine
T2 construct: expressed in transfected cells; host or cells: NIH-3T3
T2 sequence (P18089 1-450): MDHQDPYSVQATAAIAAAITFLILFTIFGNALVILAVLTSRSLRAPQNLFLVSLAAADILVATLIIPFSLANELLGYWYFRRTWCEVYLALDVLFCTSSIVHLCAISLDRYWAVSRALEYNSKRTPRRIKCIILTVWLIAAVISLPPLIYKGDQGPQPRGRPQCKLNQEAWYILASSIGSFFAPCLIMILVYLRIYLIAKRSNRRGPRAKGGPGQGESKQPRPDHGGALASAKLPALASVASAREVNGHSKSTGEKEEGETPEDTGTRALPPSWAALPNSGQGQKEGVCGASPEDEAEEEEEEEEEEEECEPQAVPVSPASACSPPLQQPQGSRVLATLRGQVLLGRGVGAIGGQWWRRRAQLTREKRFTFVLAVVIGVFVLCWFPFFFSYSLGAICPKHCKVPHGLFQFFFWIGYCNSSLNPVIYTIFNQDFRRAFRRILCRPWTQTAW
Description: as §1, §2

alpha 2C receptor = target: T3, alpha 2C receptor (Homo sapiens, UniProt P18825); assay: RSAT assay (Receptor Selection and Amplification Technology), Alpha 2C; conditions: for Intrinsic Activity efficacy Alpha 2C: value in parentheses, ratio of maximal effect to that of brimonidine
T3 construct: expressed in transfected cells; host or cells: NIH-3T3
T3 sequence (P18825 1-462): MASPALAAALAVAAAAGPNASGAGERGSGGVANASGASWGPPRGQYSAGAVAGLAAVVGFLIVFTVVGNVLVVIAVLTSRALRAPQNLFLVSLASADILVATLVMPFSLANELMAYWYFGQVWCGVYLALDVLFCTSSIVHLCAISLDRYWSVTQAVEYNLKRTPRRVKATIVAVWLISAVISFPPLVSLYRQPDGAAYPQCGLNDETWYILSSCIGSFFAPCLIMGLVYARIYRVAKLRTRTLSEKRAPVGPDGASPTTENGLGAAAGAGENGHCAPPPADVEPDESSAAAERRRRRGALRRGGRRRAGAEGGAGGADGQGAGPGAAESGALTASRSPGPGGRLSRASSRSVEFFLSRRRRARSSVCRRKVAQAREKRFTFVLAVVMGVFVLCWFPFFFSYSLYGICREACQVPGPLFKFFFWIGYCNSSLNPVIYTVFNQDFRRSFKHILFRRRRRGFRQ
Description: as §1, §2

[1] = RSAT, transfected NIH-3T3 cells with Gq/i5, NA = not active at concentrations less than 10 micromolar, read-out: potency nM (EC50) Alpha 2C
[2] = RSAT, transfected NIH-3T3 cells with Gq/i5, Table 1, read-out: potency nM (EC50) Alpha 2B

Row | Structure (SMILES) | Intrinsic Activity efficacy Alpha 1A (Alpha 1A) | Intrinsic Activity efficacy Alpha 2B (alpha 2B receptor; RSAT, Table 1) | EC50 (alpha 2C receptor; [1]) [nM] | Intrinsic Activity efficacy Alpha 2C (alpha 2C receptor; RSAT) | EC50 (alpha 2B receptor; [2]) [nM] | EC50 (alpha 2B receptor) [nM] | EC50 (alpha 2C receptor) [nM]
1 | c1ccc(C(Cc2ccncc2)/N=C2/NCCO2)cc1 (stereo not drawn) [Compound 1, N-(Oxazolidin-2-ylidene)-1-phenyl-2-(pyridin-4-yl)ethanamine] | 1.20 | 1.09 | 132 | 0.67 | – | 8 | –
2 | Cc1cccc(C(Cc2ccncc2)/N=C2/NCCS2)c1C (stereo not drawn) [Compound 4, 1-(2,3-Dimethylphenyl)-2-(pyridin-4-yl)-N-(thiazolidin-2-ylidene)ethanamine] | 0.77 | 1.1 | 14 | 0.63 | 3.8 | – | –
3 | COc1ccccc1C(Cc1cccnc1)/N=C1/NCCS1 (stereo not drawn) [Compound 11, 1-(2-Methoxyphenyl)-2-(pyridin-3-yl)-N-(thiazolidin-2-ylidene)ethanamine] | 1.6 | 0.78 | 17 | 0.86 | 17 | – | –
4 | c1ccc(C(Cc2cnccn2)/N=C2/NCCO2)cc1 (stereo not drawn) [Compound 14, N-(Oxazolidin-2-ylidene)-1-phenyl-2-(pyrazin-2-yl)ethanamine] | 1.19 | 1.0 | – | – | 132 | – | –
5 | Clc1cccc(C(Cc2ccncc2)/N=C2/NCCO2)c1Cl (stereo not drawn) [Compound 17, 1-(2,3-Dichlorophenyl)-N-(oxazolidin-2-ylidene)-2-(pyridin-4-yl)ethanamine] | 1.3 | 1.15 | 30 | 0.65 | 5 | – | –
6 | Clc1cccc(C(Cc2ccncc2)/N=C2/NCCS2)c1Cl (stereo not drawn) [Compound 18, 1-(2,3-Dichlorophenyl)-2-(pyridin-4-yl)-N-(thiazolidin-2-ylidene)ethanamine] | 1.0 | 1.1 | 21 | 0.6 | 2 | – | –
7 | Fc1cccc(C(Cc2ccncc2)N=C2NCCN2)c1 (stereo not drawn) [Compound 25, 1-(3-Fluorophenyl)-N-(imidazolidin-2-ylidene)-2-(pyridin-4-yl)ethanamine] | 0.97 | 0.68 | – | 1.03 | – | 25 | 16
8 | c1ccc([C@@H](Cc2ccncc2)/N=C2/NCCO2)cc1 [Compound 30, R—N-(oxazolidin-2-ylidene)-1-phenyl-2-(pyridin-4-yl)ethanamine] | 1.1 | 1.16 | – | 0.78 | – | 6 | 24

Now from value to compound, other results behind:

Row | Intrinsic Activity efficacy Alpha 1A (Alpha 1A) | Intrinsic Activity efficacy Alpha 2B (alpha 2B receptor; RSAT, Table 1) | EC50 (alpha 2C receptor; [1]) [nM] | Intrinsic Activity efficacy Alpha 2C (alpha 2C receptor; RSAT) | EC50 (alpha 2B receptor; [2]) [nM] | Structure (SMILES) | EC50 (alpha 2B receptor) [nM] | EC50 (alpha 2C receptor) [nM]
9 | 1.45 | 1.18 | 525 | 0.72 | 10 | c1ccc(C(Cc2ccncc2)/N=C2/NCCS2)cc1 (stereo not drawn) [Compound 2, 1-Phenyl-2-(pyridin-4-yl)-N-(thiazolidin-2-ylidene)ethanamine] | – | –
10 | 0.88 | 1.1 | 80 | 0.68 | 2.1 | Cc1cccc(C(Cc2ccncc2)/N=C2/NCCO2)c1C (stereo not drawn) [Compound 6, 1-(2,3-Dimethylphenyl)-N-(oxazolidin-2-ylidene)-2-(pyridin-4-yl)ethanamine] | – | –
11 | 1.12 | 0.62 | 23 | 0.66 | 9 | COc1ccccc1C(Cc1cccnc1)/N=C1/NCCO1 (stereo not drawn) [Compound 13, 1-(2-Methoxyphenyl)-N-(oxazolidin-2-ylidene)-2-(pyridin-3-yl)ethanamine] | – | –
12 | 0.72 | 0.84 | – | – | 198 | c1ccc(C(Cc2cnccn2)N=C2NCCN2)cc1 (stereo not drawn) [Compound 15, N-(Imidazolidin-2-ylidene)-1-phenyl-2-(pyrazin-2-yl)ethanamine] | – | –
13 | 1.1 | 0.97 | 100 | 0.5 | 170 | c1ccc(C(Cc2cnccn2)/N=C2/NCCS2)cc1 (stereo not drawn) [Compound 16, 1-Phenyl-2-(pyrazin-2-yl)-N-(thiazolidin-2-ylidene)ethanamine] | – | –
14 | 1.36 | – | – | – | – | Fc1cccc(C(Cc2ccncc2)/N=C2/NCCS2)c1 (stereo not drawn) [Compound 23, 1-(3-Fluorophenyl)-2-(pyridin-4-yl)-N-(thiazolidin-2-ylidene)ethanamine] | – | –
15 | 1.1 | 0.98 | 237 | 0.93 | 14.3 | Fc1cccc(C(Cc2ccncc2)/N=C2/NCCO2)c1 (stereo not drawn) [Compound 24, 1-(3-Fluorophenyl)-N-(oxazolidin-2-ylidene)-2-(pyridin-4-yl)ethanamine] | – | –
16 | 0.60 | – | 96 | 0.60 | – | c1ccc([C@@H](Cc2ccncc2)N=C2NCCN2)cc1 [Compound 29, R—N-(imidazolidin-2-ylidene)-1-phenyl-2-(pyridin-4-yl)ethanamine] | – | –
17 | 1.1 | 0.64 | 6.1 | 1.0 | 21 | c1ccc([C@@H](Cc2ccncc2)/N=C2/NCCS2)cc1 [Compound 31, R-1-phenyl-2-(pyridin-4-yl)-N-(thiazolidin-2-ylidene)ethanamine] | – | –
18 | 0.52 | 1.3 | – | – | 1 | Clc1cccc(C(Cc2ccncc2)N=C2NCCN2)c1Cl (stereo not drawn) [Compound 32, 1-(2,3-Dichlorophenyl)-N-(imidazolidin-2-ylidene)-2-(pyridin-4-yl)ethanamine] | – | –
